In US20100267561A1, “HERBICIDAL PYRIDAZINONE DERIVATIVES” (priority 2007, published 2010):

Columns and labels:
Assay in all cases: Test B pre-/postemergence plant response
Assay type in all cases: in vivo
[1] = tested on: Italian ryegrass (Lolium multiflorum); details: Preemergence
Source text: (§1) Seeds of plant species selected from blackgrass (Alopecurus myosuroides), downy bromegrass (Bromus tectorum), green foxtail (Setaria viridis), Italian ryegrass (Lolium multiflorum), wheat (Triticum aestivum), wild oat (Avena fatua), catchweed bedstraw (Galium aparine), bermudagrass (Cynodon dactylon), surinam grass (Brachiaria decumbens), cocklebur (Xanthium strumarium), corn (Zea mays), large crabgrass (Digitaria sanguinalis), woolly cupgrass (Eriochloa villosa), giant foxtail (Setaria faberii), goosegrass (Eleusine indica), johnsongrass (Sorghum halepense), kochia (Kochia scoparia), lambsquarters (Chenopodium album), morningglory (Ipomoea coccinea), eastern black (E.B.) nightshade (Solanum ptycanthum), yellow nutsedge (Cyperus esculentus), pigweed (Amaranthus retroflexus), common ragweed (Ambrosia elation), Russian thistle (Salsola iberica), soybean (Glycine max), common (oilseed) sunflower (Helianthus annuus), and velvetleaf (Abutilon theophrasti) were planted and treated preemergence with test chemicals formulated in a non-phytotoxic solvent mixture which included a surfactant.
(§2) At the same time, plants selected from these crop and weed species and also winter barley (Hordeum vulgare), canarygrass (Phalaris minor), chickweed (Stellaria media) and windgrass (Apera spica-venti) were treated with postemergence applications of some of the test chemicals formulated in the same manner. Plants ranged in height from 2 to 18 cm (1- to 4-leaf stage) for postemergence treatments.
(§3) Plant species in the flooded paddy test consisted of rice (Oryza sativa), umbrella sedge (Cyperus difformis), ducksalad (Heteranthera limosa) and barnyardgrass (Echinochloa crus-galli) grown to the 2-leaf stage for testing. At time of treatment, test pots were flooded to 3 cm above the soil surface, treated by application of test compounds directly to the paddy water, and then maintained at that water depth for the duration of the test. Treated plants and controls were maintained in a greenhouse for 13 to 15 days, after which time all species were compared to controls and visually evaluated. Plant response ratings, summarized in Table B, are based on a scale of 0 to 100 where 0 is no effect and 100 is complete control. A dash (-) response means no test result.

[2] = tested on: Russian thistle (Salsola iberica); details: Preemergence
Source text: as §1, §2, §3

[3] = tested on: bermudagrass (Cynodon dactylon); details: Preemergence; for Bermudagrass plant response rating: 8 g ai/ha
Source text: as §1, §2, §3

[4] = tested on: corn (Zea mays); details: Preemergence
Source text: as §1, §2, §3

[5] = tested on: downy bromegrass (Bromus tectorum); details: Preemergence; for Bromegrass, Downy plant response rating: 8 g ai/ha
Source text: as §1, §2, §3

[6] = tested on: eastern black (E.B.) nightshade (Solanum ptycanthum); details: Preemergence
Source text: as §1, §2, §3

[7] = tested on: green foxtail (Setaria viridis); details: Preemergence
Source text: as §1, §2, §3

[8] = tested on: morningglory (Ipomoea coccinea); details: Preemergence
Source text: as §1, §2, §3

[9] = tested on: pigweed (Amaranthus retroflexus); details: Preemergence
Source text: as §1, §2, §3

[10] = tested on: soybean (Glycine max); details: Preemergence
Source text: as §1, §2, §3

[11] = tested on: surinam grass (Brachiaria decumbens); details: Preemergence; for Surinam Grass plant response rating: scale 0 to 100
Source text: as §1, §2, §3

[12] = tested on: velvetleaf (Abutilon theophrasti); details: Preemergence; for Velvetleaf plant response rating: scale 0 to 100
Source text: as §1, §2, §3

[13] = tested on: woolly cupgrass (Eriochloa villosa); details: Preemergence
Source text: as §1, §2, §3

[14] = 31 g ai/ha, scale 0 to 100 (0 no effect, 100 complete control)
[15] = scale 0 to 100 (0 no effect, 100 complete control)
[16] = 16 g ai/ha, scale 0 to 100 (0 no effect, 100 complete control)
[17] = 31 g ai/ha, 0 to 100 scale, 0 no effect, 100 complete control
[18] = 62 g ai/ha, 0 to 100 scale, 0 no effect, 100 complete control

Cc1cc(-c2ccc(Cl)cc2)nn1-c1c(OS(=O)(=O)c2ccccc2[N+](=O)[O-])cnn(C)c1=O [Compound 51]
Plant response rating, Ryegrass, Italian [1, 14]: 100
Plant response rating, Ryegrass, Italian ([1]; 62 g ai/ha, scale 0 to 100): 100
Ryegrass, Italian plant response rating ([1]; 8 g ai/ha, scale 0 to 100): 100
Ryegrass, Italian plant response rating ([1]; 16 g ai/ha, scale 0 to 100): 100
Plant response rating, Russian Thistle [2, 14]: 0
Plant response rating, Russian Thistle ([2]; 62 g ai/ha, scale 0 to 100): 0
Russian Thistle plant response rating ([2]; 8 g ai/ha, scale 0 to 100): 0
Russian Thistle plant response rating ([2]; 16 g ai/ha, scale 0 to 100): 0
Bermudagrass plant response rating [3, 15]: 60
Plant response rating, Bermudagrass [3, 16]: 100
Plant response rating, Bermudagrass [3, 17]: 100
Plant response rating, Bermudagrass ([3]; 62 g ai/ha, scale 0 to 100): 100
Plant response rating, Corn [4, 17]: 60
Plant response rating, Corn ([4]; 62 g ai/ha, scale 0 to 100): 80
Plant response rating, Bromegrass, Downy [5, 16]: 0
Plant response rating, Bromegrass, Downy [5, 17]: 45
Plant response rating, Bromegrass, Downy ([5]; 62 g ai/ha, scale 0 to 100): 85
Bromegrass, Downy plant response rating ([5]; scale 0 to 100): 0
Plant response rating, Nightshade, E. B. [6, 14]: 0
Plant response rating, Nightshade, E. B. ([6]; 62 g ai/ha, scale 0 to 100): 0
Plant response rating, Foxtail, Green [7, 17]: 98
Plant response rating, Foxtail, Green ([7]; 62 g ai/ha, scale 0 to 100): 100
Foxtail, Green plant response rating ([7]; 8 g ai/ha, scale 0 to 100): 50
Foxtail, Green plant response rating ([7]; 16 g ai/ha, scale 0 to 100): 90
Plant response rating, Morningglory [8, 14]: 0
Plant response rating, Morningglory ([8]; 62 g ai/ha, scale 0 to 100): 0
Morningglory plant response rating ([8]; 8 g ai/ha, scale 0 to 100): 0
Morningglory plant response rating ([8]; 16 g ai/ha, scale 0 to 100): 0
Plant response rating, Pigweed [9, 14]: 0
Plant response rating, Pigweed ([9]; 62 g ai/ha, scale 0 to 100): 0
Pigweed plant response rating ([9]; 8 g ai/ha, scale 0 to 100): 0
Pigweed plant response rating ([9]; 16 g ai/ha, scale 0 to 100): 0
Plant response rating, Soybean [10, 14]: 0
Plant response rating, Soybean ([10]; 62 g ai/ha, scale 0 to 100): 0
Soybean plant response rating ([10]; 8 g ai/ha, scale 0 to 100): 0
Soybean plant response rating ([10]; 16 g ai/ha, scale 0 to 100): 0
Plant response rating, Surinam Grass [11, 14]: 90
Plant response rating, Surinam Grass [11, 18]: 100
Surinam Grass plant response rating ([11]; 8 g ai/ha): 30
Surinam Grass plant response rating ([11]; 16 g ai/ha): 75
Plant response rating, Velvetleaf [12, 14]: 0
Plant response rating, Velvetleaf [12, 18]: 0
Velvetleaf plant response rating ([12]; 8 g ai/ha): 0
Velvetleaf plant response rating ([12]; 16 g ai/ha): 0
Plant response rating, Cupgrass, Woolly [13, 17]: 90
Plant response rating, Cupgrass, Woolly ([13]; 62 g ai/ha, scale 0 to 100): 100
Cupgrass, Woolly plant response rating ([13]; 8 g ai/ha, scale 0 to 100): 0
Cupgrass, Woolly plant response rating ([13]; 16 g ai/ha, scale 0 to 100): 80

C#CCOC(=O)Oc1cnn(C)c(=O)c1-n1nc(-c2ccc(Cl)cc2)cc1C [Compound 58]
Plant response rating, Ryegrass, Italian [1, 14]: 100
Plant response rating, Ryegrass, Italian [1, 18]: 100
Ryegrass, Italian plant response rating ([1]; 8 g ai/ha, scale 0 to 100): 0
Ryegrass, Italian plant response rating ([1]; 16 g ai/ha, scale 0 to 100): 100
Plant response rating, Russian Thistle [2, 14]: 20
Plant response rating, Russian Thistle [2, 18]: 60
Russian Thistle plant response rating ([2]; 8 g ai/ha, scale 0 to 100): 0
Russian Thistle plant response rating ([2]; 16 g ai/ha, scale 0 to 100): 0
Bermudagrass plant response rating [3, 15]: 100
Plant response rating, Bermudagrass [3, 16]: 100
Plant response rating, Bermudagrass [3, 14]: 100
Plant response rating, Bermudagrass [3, 18]: 100
Plant response rating, Corn [4, 14]: 55
Plant response rating, Corn [4, 18]: 80
Corn plant response rating ([4]; 8 g ai/ha, scale 0 to 100): 0
Corn plant response rating ([4]; 16 g ai/ha, scale 0 to 100): 0
Plant response rating, Bromegrass, Downy [5, 14]: 65
Plant response rating, Bromegrass, Downy [5, 18]: 85
Bromegrass, Downy plant response rating ([5]; scale 0 to 100): 0
Plant response rating, Nightshade, E. B. [6, 14]: 0
Plant response rating, Nightshade, E. B. [6, 18]: 0
Nightshade, E. B. plant response rating ([6]; 8 g ai/ha, scale 0 to 100): 0
Nightshade, E. B. plant response rating ([6]; 16 g ai/ha, scale 0 to 100): 0
Plant response rating, Foxtail, Green [7, 14]: 100
Plant response rating, Foxtail, Green [7, 18]: 100
Foxtail, Green plant response rating ([7]; 8 g ai/ha, scale 0 to 100): 100
Foxtail, Green plant response rating ([7]; 16 g ai/ha, scale 0 to 100): 100
Plant response rating, Morningglory [8, 14]: 0
Plant response rating, Morningglory [8, 18]: 0
Morningglory plant response rating ([8]; 8 g ai/ha, scale 0 to 100): 0
Morningglory plant response rating ([8]; 16 g ai/ha, scale 0 to 100): 0
Plant response rating, Pigweed [9, 14]: 0
Plant response rating, Pigweed [9, 18]: 0
Pigweed plant response rating ([9]; 8 g ai/ha, scale 0 to 100): 0
Pigweed plant response rating ([9]; 16 g ai/ha, scale 0 to 100): 0
Plant response rating, Soybean [10, 14]: 0
Plant response rating, Soybean [10, 18]: 0
Soybean plant response rating ([10]; 8 g ai/ha, scale 0 to 100): 0
Soybean plant response rating ([10]; 16 g ai/ha, scale 0 to 100): 0
Plant response rating, Surinam Grass [11, 14]: 98
Plant response rating, Surinam Grass [11, 18]: 100
Surinam Grass plant response rating ([11]; 8 g ai/ha): 95
Surinam Grass plant response rating ([11]; 16 g ai/ha): 98
Plant response rating, Velvetleaf [12, 14]: 0
Plant response rating, Velvetleaf [12, 18]: 0
Velvetleaf plant response rating ([12]; 8 g ai/ha): 0
Velvetleaf plant response rating ([12]; 16 g ai/ha): 0
Plant response rating, Cupgrass, Woolly [13, 14]: 100
Plant response rating, Cupgrass, Woolly [13, 18]: 100
Cupgrass, Woolly plant response rating ([13]; 8 g ai/ha, scale 0 to 100): 75
Cupgrass, Woolly plant response rating ([13]; 16 g ai/ha, scale 0 to 100): 80
